In brackets after ≈: the same amount, converted by molar mass. Activity calls are given as the source filed them. The calls are words filed in the database; no cut-off is given here.
How the values were obtained:
[1] = Protein binding in rat plasma assessed as free fraction; assay type: ADME, cell-free
DNA gyrase = DNA gyrase (Escherichia coli, UniProt P0AES4+P0AES6); experiment: Inhibition of Escherichia coli DNA gyrase incubated for 80 mins by Transcreener ADP2 FI assay; assay type: protein-complex assay
[2] = molecular target: Voltage-gated inwardly rectifying potassium channel KCNH2 (Homo sapiens, UniProt Q12809); experiment: (§1) Inhibition of hERG potassium channel expressed in CHO cells by electrophysiological patch clamp assay; assay type: toxicity, cell-based
hERG (KCNH2) [3] = molecular target: T1, hERG (KCNH2) (Homo sapiens, UniProt Q12809); experiment: as §1; assay type: toxicity, cell-based; details: human, CHO cells expressing hERG
[4] = Stability in mouse microsome; assay type: ADME; details: microsomes
Pseudomonas aeruginosa [5] = experiment: Bactericidal effect against pseudomonas aeruginosa ATCC 27853 infected in neutropenic CD-1 lung infection mouse model assessed as reduction in colony forming unit in lung at 45 mg/kg, sc TID administered at […] interval for 24 hrs; assay type: functional
Staphylococcus aureus [6] = experiment: Antibacterial activity against Staphylococcus aureus ATCC 29213 assessed as inhibition in bacterial growth incubated for 20 to 24 hrs by CLSI based broth microdilution method; assay type: functional; details: Staphylococcus aureus, ATCC 29213; time 20-24 hrs; read-out: MIC
Escherichia coli [7] = experiment: Antibacterial activity against Escherichia coli ATCC BAA-2340 assessed as inhibition in bacterial growth incubated for 20 to 24 hrs by CLSI based broth microdilution method; assay type: functional; details: Escherichia coli, ATCC BAA-2340, time 20-24 hrs; read-out: MIC
Pseudomonas aeruginosa [8] = experiment: Bacteriostatic effect against pseudomonas aeruginosa ATCC 27853 infected in neutropenic CD-1 lung infection mouse model assessed as reduction in colony forming unit at 15 mg/kg, sc TID administered at 8 hrs interval for 24 hrs; assay type: functional, organism-based
[9] = Protein binding in human plasma assessed as free fraction; assay type: ADME, cell-free
Acinetobacter baumannii [10] = experiment: Antibacterial activity against Acinetobacter baumannii ATCC 19606 assessed as inhibition in bacterial growth incubated for 20 to 24 hrs by CLSI based broth microdilution method; assay type: functional; details: time 20-24 hrs
Escherichia coli [11] = experiment: Antibacterial activity against Escherichia coli K-12 BW25113 deltaTolC assessed as inhibition in bacterial growth incubated for 20 to 24 hrs by CLSI based broth microdilution method; assay type: functional; details: time 20-24 hrs
[12] = Stability in rat hepatocyte; assay type: ADME, cell-based; details: hepatocytes
[13] = Stability in human microsome; assay type: ADME; details: microsomes
CYP2C9 = CYP2C9 (Homo sapiens, UniProt P11712); experiment: Inhibition of CYP2C9 (unknown origin) at 10 uM relative to control; assay type: ADME
Pseudomonas aeruginosa [14] = experiment: Antibacterial activity against Pseudomonas aeruginosa NCTC 13437 assessed as inhibition in bacterial growth incubated for 20 to 24 hrs by CLSI based broth microdilution method; assay type: functional; details: Pseudomonas aeruginosa, NCTC 13437, time 20-24 hrs; read-out: MIC
[15] = Stability in human hepatocyte; assay type: ADME, cell-based; details: hepatocytes
Klebsiella pneumoniae [16] = experiment: Antibacterial activity against Klebsiella pneumoniae ATCC 10031 assessed as inhibition in bacterial growth incubated for 20 to 24 hrs by CLSI based broth microdilution method; assay type: functional; details: time 20-24 hrs
[17] = Stability in rat microsome; assay type: ADME; details: microsomes
CYP2D6 = CYP2D6 (Homo sapiens, UniProt P10635); experiment: Inhibition of CYP2D6 (unknown origin) at 10 uM relative to control; assay type: ADME
Pseudomonas aeruginosa [18] = experiment: Antibacterial activity against pseudomonas aeruginosa ATCC 27853 infected in neutropenic CD-1 lung infection mouse model assessed as reduction in colony forming unit in lung at 45 mg/kg, sc TID administered for 24 hrs; assay type: functional, organism-based
hERG (KCNH2) [19] = molecular target: T1, hERG (KCNH2); experiment: Inhibition of hERG potassium channel expressed in CHO cells at 1 uM by electrophysiological patch clamp assay relative to control; assay type: toxicity, cell-based; details: CHO cells expressing hERG
Klebsiella pneumoniae [20] = experiment: Antibacterial activity against Klebsiella pneumoniae ATCC 700603 assessed as inhibition in bacterial growth incubated for 20 to 24 hrs by CLSI based broth microdilution method; assay type: functional; details: Klebsiella pneumoniae, ATCC 700603, time 20-24 hrs; read-out: MIC
[21] = Protein binding in mouse plasma assessed as free fraction; assay type: ADME, cell-free
[22] = Drug excretion in Wistar-Han rat urine assessed as parent compound remaining at 3 mg/kg, iv administered upto 48 hrs by LC-MS/MS method; assay type: ADME, organism-based; details: read-out: Drug excretion
Pseudomonas aeruginosa [23] = experiment: Antibacterial activity against Pseudomonas aeruginosa ATCC 27853 assessed as inhibition in bacterial growth incubated for 20 to 24 hrs by CLSI based broth microdilution method; assay type: functional; details: time 20-24 hrs
Acinetobacter baumannii [24] = experiment: Antibacterial activity against Acinetobacter baumannii ATCC BAA-747 assessed as inhibition in bacterial growth incubated for 20 to 24 hrs by CLSI based broth microdilution method; assay type: functional; details: Acinetobacter baumannii, ATCC BAA-747, time 20-24 hrs; read-out: MIC
Staphylococcus aureus [25] = experiment: Antibacterial activity against Staphylococcus aureus ATCC BAA-1556 assessed as inhibition in bacterial growth incubated for 20 to 24 hrs by CLSI based broth microdilution method; assay type: functional; details: Staphylococcus aureus, ATCC BAA-1556, time 20-24 hrs; read-out: MIC
hERG (KCNH2) [26] = molecular target: T1, hERG (KCNH2); experiment: Inhibition of hERG potassium channel expressed in CHO cells at 10 uM by electrophysiological patch clamp assay relative to control; assay type: toxicity, cell-based; details: CHO cells expressing hERG
Pseudomonas aeruginosa [27] = experiment: Antibacterial activity against pseudomonas aeruginosa ATCC 27853 infected in neutropenic CD-1 lung infection mouse model assessed as reduction in colony forming unit in lung at 15 mg/kg, sc TID administered at 8 hrs interval for 24 hrs; assay type: functional, organism-based
Klebsiella pneumoniae [28] = experiment: Antibacterial activity against Klebsiella pneumoniae ATCC BAA-1705 assessed as inhibition in bacterial growth incubated for 20 to 24 hrs by CLSI based broth microdilution method; assay type: functional; details: time 20-24 hrs
Escherichia coli [29] = experiment: Antibacterial activity against Escherichia coli K-12 BW25113 assessed as inhibition in bacterial growth incubated for 20 to 24 hrs by CLSI based broth microdilution method; assay type: functional; details: Escherichia coli, K-12 BW25113, time 20-24 hrs; read-out: MIC
[30] = Aqueous solubility of the compound at pH 6.5 at > 0.5 mg/ml; assay type: physicochemical; details: buffer
Pseudomonas aeruginosa [31] = experiment: Antibacterial activity against Pseudomonas aeruginosa NCTC 11451 assessed as inhibition in bacterial growth incubated for 20 to 24 hrs by CLSI based broth microdilution method; assay type: functional; details: Pseudomonas aeruginosa, NCTC 11451, time 20-24 hrs; read-out: MIC
[32] = Stability in mouse hepatocyte; assay type: ADME, cell-based; details: hepatocytes
Escherichia coli [33] = experiment: Antibacterial activity against Escherichia coli ATCC 35218 assessed as inhibition in bacterial growth incubated for 20 to 24 hrs by CLSI based broth microdilution method; assay type: functional; details: Escherichia coli, ATCC 35218, time 20-24 hrs; read-out: MIC
Klebsiella pneumoniae [34] = experiment: Antibacterial activity against Klebsiella pneumoniae ATCC BAA-2146 assessed as inhibition in bacterial growth incubated for 20 to 24 hrs by CLSI based broth microdilution method; assay type: functional; details: Klebsiella pneumoniae, ATCC BAA-2146, time 20-24 hrs; read-out: MIC
Escherichia coli [35] = experiment: Antibacterial activity against Escherichia coli ATCC 25922 assessed as inhibition in bacterial growth incubated for 20 to 24 hrs by CLSI based broth microdilution method; assay type: functional; details: time 20-24 hrs
CYP3A4 = CYP3A4 (Homo sapiens, UniProt P08684); experiment: Inhibition of CYP3A4 (unknown origin) at 10 uM relative to control; assay type: ADME
Acinetobacter baumannii [36] = experiment: Antibacterial activity against Acinetobacter baumannii ATCC 51432 assessed as inhibition in bacterial growth incubated for 20 to 24 hrs by CLSI based broth microdilution method; assay type: functional; details: Acinetobacter baumannii, ATCC 51432, time 20-24 hrs; read-out: MIC
[37] = Inhibition of Escherichia coli topoisomerase 4 incubated for 120 mins by Transcreener ADP2 FI assay
[38] = Cytotoxicity against HEK293 cells; assay type: toxicity, cell-based; details: human

T1 sequence (Q12809 whole entry): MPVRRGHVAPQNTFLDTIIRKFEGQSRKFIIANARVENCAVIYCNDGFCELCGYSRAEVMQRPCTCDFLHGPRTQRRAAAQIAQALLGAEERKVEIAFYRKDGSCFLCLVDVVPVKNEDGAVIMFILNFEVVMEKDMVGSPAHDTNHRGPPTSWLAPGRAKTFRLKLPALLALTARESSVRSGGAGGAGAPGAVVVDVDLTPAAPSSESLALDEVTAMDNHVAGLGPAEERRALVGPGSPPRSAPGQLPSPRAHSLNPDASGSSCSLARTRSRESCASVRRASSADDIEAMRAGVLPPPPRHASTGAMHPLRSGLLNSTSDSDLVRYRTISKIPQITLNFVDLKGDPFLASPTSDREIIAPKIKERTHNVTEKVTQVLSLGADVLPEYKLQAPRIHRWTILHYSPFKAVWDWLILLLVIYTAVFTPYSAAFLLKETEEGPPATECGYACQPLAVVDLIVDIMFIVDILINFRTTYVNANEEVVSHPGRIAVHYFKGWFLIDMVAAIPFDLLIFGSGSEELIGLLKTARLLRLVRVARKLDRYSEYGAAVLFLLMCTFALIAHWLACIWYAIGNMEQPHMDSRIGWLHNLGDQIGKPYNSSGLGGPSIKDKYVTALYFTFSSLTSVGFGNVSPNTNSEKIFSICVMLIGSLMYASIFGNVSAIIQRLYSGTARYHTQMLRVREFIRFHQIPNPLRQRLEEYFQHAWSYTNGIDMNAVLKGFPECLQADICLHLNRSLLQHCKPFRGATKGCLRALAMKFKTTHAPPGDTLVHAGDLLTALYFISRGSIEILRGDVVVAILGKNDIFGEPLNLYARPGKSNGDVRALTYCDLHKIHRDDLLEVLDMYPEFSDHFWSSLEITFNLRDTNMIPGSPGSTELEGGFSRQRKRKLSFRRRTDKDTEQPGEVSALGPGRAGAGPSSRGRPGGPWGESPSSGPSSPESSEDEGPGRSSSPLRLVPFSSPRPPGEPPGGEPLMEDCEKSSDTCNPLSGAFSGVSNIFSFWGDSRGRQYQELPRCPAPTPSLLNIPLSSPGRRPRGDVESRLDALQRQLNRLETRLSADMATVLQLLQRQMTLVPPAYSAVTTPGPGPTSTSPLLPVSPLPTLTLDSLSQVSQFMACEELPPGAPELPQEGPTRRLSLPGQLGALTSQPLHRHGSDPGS
Chain of CYP3A4 (P08684 whole entry): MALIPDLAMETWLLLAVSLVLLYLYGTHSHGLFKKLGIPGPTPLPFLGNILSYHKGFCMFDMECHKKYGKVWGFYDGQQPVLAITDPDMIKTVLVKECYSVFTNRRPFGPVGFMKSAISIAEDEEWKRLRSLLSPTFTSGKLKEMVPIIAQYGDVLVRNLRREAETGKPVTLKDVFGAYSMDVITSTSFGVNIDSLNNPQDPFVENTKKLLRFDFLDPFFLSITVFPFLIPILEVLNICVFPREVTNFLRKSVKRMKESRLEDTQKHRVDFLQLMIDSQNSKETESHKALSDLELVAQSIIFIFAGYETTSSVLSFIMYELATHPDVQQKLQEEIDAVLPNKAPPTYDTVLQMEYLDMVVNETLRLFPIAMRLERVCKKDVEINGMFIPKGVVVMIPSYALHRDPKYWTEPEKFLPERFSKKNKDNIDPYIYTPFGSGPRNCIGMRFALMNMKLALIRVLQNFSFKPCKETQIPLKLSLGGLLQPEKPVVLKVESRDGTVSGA
Chain of CYP2C9 (P11712 whole entry): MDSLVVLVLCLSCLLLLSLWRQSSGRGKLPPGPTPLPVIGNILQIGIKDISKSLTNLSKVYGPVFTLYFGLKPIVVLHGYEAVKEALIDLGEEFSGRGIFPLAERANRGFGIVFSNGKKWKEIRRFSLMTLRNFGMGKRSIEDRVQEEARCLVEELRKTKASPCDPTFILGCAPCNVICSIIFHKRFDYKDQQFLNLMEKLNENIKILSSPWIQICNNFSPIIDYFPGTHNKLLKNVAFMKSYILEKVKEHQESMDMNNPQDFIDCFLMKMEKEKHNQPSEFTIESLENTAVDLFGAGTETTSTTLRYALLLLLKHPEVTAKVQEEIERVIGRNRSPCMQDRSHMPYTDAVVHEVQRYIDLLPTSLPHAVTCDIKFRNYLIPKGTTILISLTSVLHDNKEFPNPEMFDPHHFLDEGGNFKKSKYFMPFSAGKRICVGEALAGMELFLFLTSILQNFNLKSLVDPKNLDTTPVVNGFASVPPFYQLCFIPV
Chain of Voltage-gated inwardly rectifying potassium channel KCNH2 (Q12809 whole entry): as the sequence (Q12809 whole entry) above
Chain of CYP2D6 (P10635 whole entry): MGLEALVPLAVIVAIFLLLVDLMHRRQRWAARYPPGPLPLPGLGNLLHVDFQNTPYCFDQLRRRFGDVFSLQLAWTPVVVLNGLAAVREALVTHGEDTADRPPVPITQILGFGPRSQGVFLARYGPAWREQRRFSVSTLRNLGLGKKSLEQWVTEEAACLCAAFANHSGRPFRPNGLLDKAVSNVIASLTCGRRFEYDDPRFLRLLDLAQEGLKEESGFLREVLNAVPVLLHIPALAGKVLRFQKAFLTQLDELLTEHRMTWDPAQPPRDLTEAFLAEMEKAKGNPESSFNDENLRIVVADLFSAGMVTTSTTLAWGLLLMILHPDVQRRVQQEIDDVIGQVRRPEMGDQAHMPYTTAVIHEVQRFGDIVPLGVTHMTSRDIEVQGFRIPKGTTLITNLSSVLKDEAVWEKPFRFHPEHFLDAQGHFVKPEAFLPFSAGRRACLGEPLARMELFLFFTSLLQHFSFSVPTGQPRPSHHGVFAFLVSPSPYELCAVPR

Structure (SMILES): NC1(COc2cc(F)c3c(c2)CC(CNCCC2CN(c4cnc5c(n4)NC(=O)CO5)C(=O)O2)C3)CC1 (configuration not stated)
- fraction unbound [1]: 0.32
- IC50 (DNA gyrase): 0.06 µM
- IC50 [2]: > 20 µM
- IC20 (hERG (KCNH2) [3]): > 10 µM
- Stability [4]: Stable
- Activity (Pseudomonas aeruginosa [5]): 2.6 log10CFU
- MIC (Staphylococcus aureus [6]): 0.125 µg/mL (≈ 0.244 µM)
- MIC (Escherichia coli [7]): 0.25 µg/mL (≈ 0.488 µM)
- Activity (Pseudomonas aeruginosa [8]): inactive
- fraction unbound [9]: 0.4
- MIC (Acinetobacter baumannii [10]): 2 µg/mL (≈ 3.9 µM)
- MIC (Escherichia coli [11]): ≤ 0.06 µg/mL
- Stability [12]: Stable
- Stability [13]: Stable
- inhibition at 10 µM (CYP2C9): < 25%
- MIC (Pseudomonas aeruginosa [14]): 1 µg/mL (≈ 1.95 µM)
- Stability [15]: Stable
- MIC (Klebsiella pneumoniae [16]): ≤ 0.06 µg/mL
- Stability [17]: Stable
- inhibition at 10 µM (CYP2D6): < 25%
- Activity (Pseudomonas aeruginosa [18]): Active
- inhibition at 1 µM (hERG (KCNH2) [19]): < 1%
- MIC (Klebsiella pneumoniae [20]): 1 µg/mL (≈ 1.95 µM)
- fraction unbound [21]: 0.4
- dose excreted at 48 h [22]: 5%
- MIC (Pseudomonas aeruginosa [23]): 0.25 µg/mL (≈ 0.488 µM)
- MIC (Acinetobacter baumannii [24]): 0.5 µg/mL (≈ 0.976 µM)
- MIC (Staphylococcus aureus [25]): 0.5 µg/mL (≈ 0.976 µM)
- inhibition at 10 µM (hERG (KCNH2) [26]): < 1%
- Activity (Pseudomonas aeruginosa [27]): Active
- MIC (Klebsiella pneumoniae [28]): 1 µg/mL (≈ 1.95 µM)
- MIC (Escherichia coli [29]): 0.06 µg/mL (≈ 0.117 µM)
- solubility [30]: Soluble
- MIC (Pseudomonas aeruginosa [31]): 1 µg/mL (≈ 1.95 µM)
- Stability [32]: Stable
- MIC (Escherichia coli [33]): 0.125 µg/mL (≈ 0.244 µM)
- MIC (Klebsiella pneumoniae [34]): 2 µg/mL (≈ 3.9 µM)
- MIC (Escherichia coli [35]): 0.125 µg/mL (≈ 0.244 µM)
- inhibition at 10 µM (CYP3A4): < 25%
- MIC (Acinetobacter baumannii [36]): 2 µg/mL (≈ 3.9 µM)
- IC50 [37]: 0.03 µM
- CC50 [38]: > 100 µM
